Reference: patent US20250127782A1, “METHODS OF TREATING CANCER” (AMGEN INC., priority 2021, published 2025)

Tests used:
[1] = Study 20170543 (CodeBreaK 100): sotorasib monotherapy pharmacokinetics; conditions: for AUC(0-t): AUC0-24h
[2] = system: extracellular signal-regulated kinase (ERK); conditions: preclinical studies; cited from earlier work
[3] = Phase 1 study of sotorasib with omeprazole under fasted conditions; format: in vivo, human
KRAS G12C mutated CRC = assay: Study 20190135 Subprotocol H, sotorasib + panitumumab: safety and tolerability (DLTs, TRAEs)
Text: Accordingly, the primary endpoint will include an assessment of dose limiting toxicities, treatment-emergent and treatment-related adverse events.
The grading of AEs will be based on the guidelines provided in the CTCAE version 5.0. […] A Hy's Law case is defined as: AST or ALT values of ≥3×ULN AND with serum total bilirubin level (TBL) of >2×ULN without signs of cholestasis and with no other clear alternative reason to explain the observed liver related laboratory abnormalities.

[4] = Phase 1 study of sotorasib with rifampin; format: in vivo, human
CRC = assay: Study 20170543 Phase 2 CRC cohort, sotorasib monotherapy; format: in vivo, human
Text: A data snapshot was taken on Jun. 9, 2022.

[5] = Phase 1 study of sotorasib with famotidine or omeprazole under fed conditions; format: in vivo, human
Procedure: Safety and tolerability monitoring was performed throughout the study.

[6] = Study 20190135 Subprotocol H: sotorasib pharmacokinetics in combination with panitumumab
[7] = Phase 1 study of digoxin with sotorasib; format: in vivo, human
Text: PK parameters were estimated using non-compartmental methods. Safety and tolerability were monitored throughout the study.

[8] = Phase 1 study of midazolam with sotorasib; conditions: 2 mg midazolam with 960 mg sotorasib after 14 days of daily sotorasib vs midazolam alone; 5 subjects
[9] = human, plasma, oral, day 1, monotherapy (CodeBreaK 100), comparison in Aug. 6, 2021 data cut
[10] = with omeprazole vs sotorasib alone, fasted state
[11] = Aug. 6, 2021 data cut, 31 patients on the combination
[12] = Jun. 24, 2022 data cut-off, 40 patients on the combination
[13] = 960 mg sotorasib with single dose of 600 mg rifampin
[14] = famotidine 10 hours prior to and 2 hours after a single dose of sotorasib
[15] = repeat doses of omeprazole with a single dose of sotorasib
[16] = Jun. 24, 2022 data cut-off, combination therapy with panitumumab (n=35)
[17] = 0.5 mg digoxin coadministered with 960 mg sotorasib
[18] = with a single dose of sotorasib vs digoxin alone

With `C=CC(=O)N1CCN(c2nc(=O)n(-c3c(C)ccnc3C(C)C)c3nc(-c4c(O)cccc4F)c(F)cc23)[C@@H](C)C1` (atropisomer, axis not shown; (M)) [sotorasib, 6-fluoro-7-(2-fluoro-6-hydroxyphenyl)-(1M)-1-[4-methyl-2-(propan-2-yl)pyridin-3-yl]-4-[(2S)-2-methyl-4-(prop-2-enoyl)piperazin-1-yl]pyrido[2,3-d]pyrimidin-2(1H)-one] the “tmax, median (range)” value ([1]; 180 mg, Day 8) was 0.75 (0.50-1.0) hr, the “tmax, median (range)” value ([1]; 960 mg, Day 1) was 2.0 (0.25-6.0) hr and the “dose proportionality of exposure” value ([1]; 180 to 960 mg PO QD, day 1 and day 8) was “less than dose-proportional”. It also gave a Tmax ([1]; after PO administration, 180 to 960 mg PO QD) of 1 to 2 h, a Tmax ([1]; human, plasma, oral) of 1.9 h and an AUC(0-t) [1, 9] of 103000 ng·h/mL. For the same compound, the AUC(0-t) ([1]; human, plasma, oral, mean (CV %), monotherapy (n=32, CodeBreaK 100), comparison in Jun. 24, 2022 data cut-off) was 65300 ng·h/mL, the Cmax [1, 9] was 9710 ng/mL and the Cmax ([1]; human, plasma, oral, day 8, monotherapy (CodeBreaK 100), comparison in Aug. 6, 2021 data cut) was 6500 ng/mL. For the same compound, the Tmax ([1]; human, plasma, oral, tmax, day 8, monotherapy (CodeBreaK 100), comparison in Aug. 6, 2021 data cut) was 2 h, the Tmax ([1]; human, plasma, oral, tmax, median (range), monotherapy (n=32, CodeBreaK 100), comparison in Jun. 24, 2022 data cut-off) was 2 h and the “accumulation with multiple dosing” value ([1]; multiple PO QD dosing for 8 days) was “no accumulation”. For the same compound, the “phosphorylation of extracellular signal-regulated kinase (ERK)” value [2] was “inhibited nearly all detectable phosphorylation”, the “mean terminal half-life (t1/2) with omeprazole compared to sotorasib alone” value ([3]; 960 mg sotorasib with 40 mg omeprazole vs alone, fasted) was “similar” and the safety and tolerability ([3]; coadministered with 40 mg omeprazole or alone, healthy subjects) was “safe and well tolerated”. For the same compound, the “decrease of sotorasib AUCinf” value [3, 10] was 42%, the “decrease of sotorasib Cmax” value [3, 10] was 57% and the “TRAEs of any grade related to the named drug” value (KRAS G12C mutated CRC; Apr. 23, 2021 data cut, 8 patients on sotorasib 960 mg QD + panitumumab 6 mg/kg IV Q2W) was 4 patients. The “TRAEs leading to dose modification of the named drug” value (KRAS G12C mutated CRC; Apr. 23, 2021 data cut, 8 patients on the combination) was 1 patients, the “TRAEs of any grade related to the named drug, % of patients” value (KRAS G12C mutated CRC; [11]) was 45.2% and the “TRAEs of any grade related to the named drug, number of patients” value (KRAS G12C mutated CRC; [11]) was 14 patients. The “TRAEs resulting in dose modification of the named drug, % of patients” value (KRAS G12C mutated CRC; [11]) was 9.7%, the “TRAEs resulting in dose modification of the named drug, number of patients” value (KRAS G12C mutated CRC; [11]) was 3 patients and the “TRAEs of any grade related to the named drug, % of patients” value (KRAS G12C mutated CRC; [12]) was 65%. The “TRAEs of any grade related to the named drug, number of patients” value (KRAS G12C mutated CRC; [12]) was 26 patients, the “TRAEs resulting in dose modification of the named drug, % of patients” value (KRAS G12C mutated CRC; [12]) was 15% and the “TRAEs resulting in dose modification of the named drug, number of patients” value (KRAS G12C mutated CRC; [12]) was 6 patients. The “Geometric mean sotorasib AUCinf” value ([4]; 960 mg sotorasib alone) was 25600 ng·h/mL, the “Geometric mean sotorasib Cmax” value ([4]; 960 mg sotorasib alone) was 6350 ng/mL and the “Geometric mean sotorasib Cmax” value ([4]; 960 mg sotorasib with multiple doses of 600 mg rifampin) was 4110 ng/mL. The “Geometric mean sotorasib AUCinf” value [4, 13] was 19600 ng·h/mL, the “Geometric mean sotorasib Cmax” value [4, 13] was 5340 ng/mL and the safety and tolerability ([4]; coadministered with 600 mg rifampin or alone, healthy subjects) was “safe and well tolerated”. The CYP3A4 substrate status ([4]; inferred from multiple doses of rifampin) was “is a CYP3A4 substrate”, the OATP1B1 substrate status ([4]; inferred from single dose of rifampin) was “not a substrate of OATP1B1” and the “decrease of sotorasib AUCinf” value ([4]; multiple doses of rifampin) was 51%. For the same compound, the “decrease of sotorasib Cmax” value ([4]; multiple doses of rifampin) was 35%, the “effect of single dose of rifampin on sotorasib PK” value ([4]; single dose of rifampin) was “did not have a clinically meaningful effect” and the response rate (CRC) was 10%. The safety and tolerability ([5]; 960 mg sotorasib with 40 mg famotidine or multiple daily 40 mg omeprazole, healthy subjects) was “safe and well tolerated”, the “decrease of sotorasib AUC” value [5, 14] was 38% and the “decrease of sotorasib Cmax” value [5, 14] was 35%. For the same compound, the “decrease of sotorasib AUC” value [5, 15] was 57%, the “decrease of sotorasib Cmax” value [5, 15] was 65% and the AUC0-24h ([6]; Aug. 6, 2021 data cut, day 1, combination therapy with panitumumab) was 77200 ng·h/mL. For the same compound, the “AUC0-24h, mean (CV %)” value [6, 16] was 65.8 (56%) h*μg/mL and the “Cmax, mean (CV %)” value [6, 16] was 9.64 (55%) μg/mL.

In the case of `C[C@H]1O[C@@H](O[C@H]2[C@@H](O)C[C@H](O[C@H]3[C@@H](O)C[C@H](O[C@H]4CC[C@@]5(C)[C@H](CC[C@@H]6[C@@H]5C[C@@H](O)[C@]5(C)[C@@H](C7=CC(=O)OC7)CC[C@]65O)C4)O[C@@H]3C)O[C@@H]2C)C[C@H](O)[C@@H]1O` [digoxin], the “Geometric mean digoxin AUCinf” value ([7]; 0.5 mg digoxin alone) is reported as 33.2 ng·h/mL, the “Geometric mean digoxin Cmax” value ([7]; 0.5 mg digoxin alone) is reported as 1.90 ng/mL and the “Geometric mean digoxin AUCinf” value [7, 17] is reported as 40.3 ng·h/mL. The “Geometric mean digoxin Cmax” value [7, 17] was 3.64 ng/mL, the “Digoxin median tmax and mean terminal half-life (t1/2) with sotorasib compared to digoxin alone” value ([7]; 0.5 mg digoxin with 960 mg sotorasib vs alone) was “similar” and the safety and tolerability ([7]; single doses of 0.5 mg digoxin alone or with 960 mg sotorasib) was “safe and well tolerated”. For the same compound, the “increase of digoxin AUCinf” value [7, 18] was “approximately 21%” and the “increase of digoxin Cmax” value [7, 18] was ~91%.

For `Cc1ncc2n1-c1ccc(Cl)cc1C(c1ccccc1F)=NC2` [midazolam], the “decrease of midazolam AUV” value [8] was 53% and the “decrease of midazolam Cmax” value [8] was 48%.
